# In patent US10111863B2 (CYDEX PHARMACEUTICALS, INC., priority 2009, dated 2018):
# Counter-ions that a name gives are not always drawn. Like-named read-outs stand apart in the source and are kept apart here.
# What was measured:
# [1] = Phase solubility of prasugrel in aqueous SBE6.5-β-CD at pH 7.4; assay type: physicochemical; details: for solubility: aqueous solution, pH 7.4, aqueous with cosolvent or surfactant or cyclodextrin, thermodynamic from solid, Prasugrel Solubility
# Description: The results of the phase solubility study at pH 7.4 are also depicted graphically in FIG. 2.
# [2] = Stability of prasugrel in 30% w/v SBE6.5-β-CD at pH 3, 4 and 6 (HPLC); assay type: physicochemical; details: for decrease in prasugrel concentration: 30% w/v SBE6.5-β-CD
# Description: The solutions were sampled at 0, 2, 7 and 53 hours. […] The data obtained from the stability study is provided graphically in FIG. 5.
# [3] = Phase solubility of prasugrel in aqueous SBE6.5-β-CD or HP4.3-β-CD at pH 4; assay type: physicochemical; details: for solubility: thermodynamic from solid
# Description: The results of the phase solubility study at pH 4 are also depicted graphically in FIG. 3. […] Note that the data obtained for the 10% w/v cyclodextrin derivatives was not included in the best-fit line that appears in FIG. 3.
# [4] = Stability of prasugrel in 30% w/v SBE6.5-β-CD or HP4.3-β-CD at pH 4 (HPLC); assay type: physicochemical
# platelet = details: healthy subjects; cited from earlier work
# platelet aggregation = details: after treatment is stopped; cited from earlier work
# [5] = cited from earlier work
structure (smiles),measurement,setting,value
"CC(=O)Oc1cc2c(s1)CCN(C(C(=O)C1CC1)c1ccccc1F)C2 (racemic) [Prasugrel, 5-[(1RS)-2-cyclopropyl-1-(2-fluorophenyl)-2-oxoethyl]-4,5,6,7-tetrahydrothieno[3,2-c]pyridin-2-yl acetate]",Prasugrel Solubility,[1]; SBE6.5-β-CD 5% w/v,0.0054% w/v
same,Prasugrel Solubility,[1]; SBE6.5-β-CD 10% w/v,0.0124% w/v
same,Prasugrel Solubility,[1]; SBE6.5-β-CD 20% w/v,0.0252% w/v
same,Prasugrel Solubility,[1]; SBE6.5-β-CD 30% w/v,0.0379% w/v
same,prasugrel solubility as a function of the derivatized cyclodextrin concentration,"[1]; SBE6.5-β-CD, FIG. 2",increased linearly
same,solubility,[1]; SBE6.5-β-CD 5% w/v,54 µg/mL
same,solubility,[1]; SBE6.5-β-CD 10% w/v,124 µg/mL
same,solubility,[1]; SBE6.5-β-CD 20% w/v,252 µg/mL
same,solubility,[1]; SBE6.5-β-CD 30% w/v,379 µg/mL
same,solubility,[1]; SBE6.5-β-CD 40% w/v,515 µg/mL
same,decrease in prasugrel concentration,"[2]; pH 3, 0.1 M phosphate buffer, after 30 hours",less than 10%
same,decrease in prasugrel concentration,"[2]; pH 3, 0.1 M phosphate buffer, after about 55 hours",less than 20%
same,decrease in prasugrel concentration,"[2]; pH 4, 0.1 M phosphate buffer, after 30 hours",less than 10%
same,decrease in prasugrel concentration,"[2]; pH 4, 0.1 M phosphate buffer, after about 55 hours",less than 20%
same,decrease in prasugrel concentration,"[2]; pH 6, 0.1 M phosphate buffer, after 30 hours",about 20%
same,decrease in prasugrel concentration,"[2]; pH 6, 0.1 M phosphate buffer, after about 55 hours",about 36%
same,stability in aqueous solution containing a sulfoalkyl ether-β-cyclodextrin versus pH,"[2]; pH 3, 4 and 6 compared",more stable at pH 4 or less
same,solubility,"[3]; aqueous HP4.3-β-CD solution, pH 4, aqueous with cosolvent or surfactant or cyclodextrin, Prasugrel Solubility w/ HP4.3-β-CD, HP4.3-β-CD 30% w/v",645 µg/mL
same,solubility,"[3]; aqueous SBE6.5-β-CD solution, pH 4, aqueous with cosolvent or surfactant or cyclodextrin, Prasugrel Solubility w/ SBE6.5-β-CD, SBE6.5-β-CD 30% w/v",664 µg/mL
same,solubility,"[3]; aqueous solution, pH 4, aqueous buffer, Prasugrel Solubility w/ HP4.3-β-CD, cyclodextrin derivative 0% w/v",206 µg/mL
same,solubility,"[3]; aqueous solution, pH 4, aqueous buffer, Prasugrel Solubility w/ SBE6.5-β-CD, cyclodextrin derivative 0% w/v",206 µg/mL
same,solubility,"[3]; aqueous solution, pH 4, aqueous with cosolvent or surfactant or cyclodextrin, Prasugrel Solubility w/ HP4.3-β-CD, HP4.3-β-CD 5% w/v",256 µg/mL
same,solubility,"[3]; aqueous solution, pH 4, aqueous with cosolvent or surfactant or cyclodextrin, Prasugrel Solubility w/ HP4.3-β-CD, HP4.3-β-CD 10% w/v",474 µg/mL
same,solubility,"[3]; aqueous solution, pH 4, aqueous with cosolvent or surfactant or cyclodextrin, Prasugrel Solubility w/ HP4.3-β-CD, HP4.3-β-CD 20% w/v",524 µg/mL
same,solubility,"[3]; aqueous solution, pH 4, aqueous with cosolvent or surfactant or cyclodextrin, Prasugrel Solubility w/ HP4.3-β-CD, HP4.3-β-CD 40% w/v",875 µg/mL
same,solubility,"[3]; aqueous solution, pH 4, aqueous with cosolvent or surfactant or cyclodextrin, Prasugrel Solubility w/ SBE6.5-β-CD, SBE6.5-β-CD 5% w/v",268 µg/mL
same,solubility,"[3]; aqueous solution, pH 4, aqueous with cosolvent or surfactant or cyclodextrin, Prasugrel Solubility w/ SBE6.5-β-CD, SBE6.5-β-CD 10% w/v",736 µg/mL
same,solubility,"[3]; aqueous solution, pH 4, aqueous with cosolvent or surfactant or cyclodextrin, Prasugrel Solubility w/ SBE6.5-β-CD, SBE6.5-β-CD 20% w/v",580 µg/mL
same,solubility,"[3]; aqueous solution, pH 4, aqueous with cosolvent or surfactant or cyclodextrin, Prasugrel Solubility w/ SBE6.5-β-CD, SBE6.5-β-CD 40% w/v",927 µg/mL
same,prasugrel solubility as a function of the derivatized cyclodextrin concentration,"[3]; both HP4.3-β-CD and SBE6.5-β-CD, FIG. 3",increased linearly
same,stability in aqueous solution containing a sulfoalkyl ether-β-cyclodextrin versus pH,[4],more stable at pH 4 or less
same,stability in SBE6.5-β-CD versus HP4.3-β-CD,"[4]; 30% w/v solutions, pH 4, 0.1 M phosphate buffer, FIG. 6",nearly identical stability
same,platelet inhibition and response compared to clopidogrel,platelet,greater platelet inhibition and more consistent response
same,time to return to baseline levels of platelet aggregation,platelet aggregation,7 to 10 days
CC(=O)Oc1cc2c(s1)CCN(C(C(=O)C1CC1)c1ccccc1F)C2 (racemic) [Prasugrel hydrochloride],pKa value,[5],5.1
same,solubility,[5]; pH 1-4,soluble to slightly soluble
same,solubility,[5]; pH 5,very slightly soluble
same,solubility,[5]; pH 6-7,practically insoluble
